Like-named read-outs stand apart in the source and are kept apart here.
Assays:
[1] = molecular target: LRRK2 wild-type (WT) (Homo sapiens, UniProt Q5S007); assay: LRRK2 wild-type Lanthascreen; type: biochemical
[2] = system: LRRK2; assay: In vitro autoradiography, NHP brain slices; type: binding; settings: cold compound 10 µM
Procedure: Whole brain hemispheres were sectioned into horizontal slices with a thickness of 100 µm using a Leica cryomacrocut system. The autoradiographic procedures followed the same protocols established in previous studies conducted in our laboratory. The whole-hemisphere sections of 100 micron thickness were incubated for 90 min at room temperature with their corresponding radiotracer (4 MBq/200 mL) in TRIS buffer (pH 7.4) containing sodium chloride (120 mM), potassium chloride (5 mM), calcium chloride (2 mM), and albumin (0.1% w/v). After incubation, sections were washed three times in the same buffer at room temperature for five minutes each, briefly dipped in ice-cold distilled water, dried, and then placed in the phosphor imaging plates. Binding density standards were prepared by serial dilution of the radioligand stock solution in the assay buffer. Readings were taken with the Fujifilm BAS-5000 (Fujifilm, Tokyo, Japan), while quantitative analysis was conducted with the Multi Gauge 3.2 image analysis software (Fujifilm, Tokyo, Japan). For blocking experiments, adjacent brain sections were co-incubated with LuAF66583 (0.1 µM or 10 µM). […] The thickness differed from human tissue (20 µm).

[3] = molecular target: T1, LRRK2 (Homo sapiens, UniProt Q5S007); assay: In vitro autoradiography, human whole-hemisphere brain slices; type: binding; settings: human brain slices; cold compound 10 µM
T1 construct: Human brains without pathological findings were acquired from the National Institute of Forensic Medicine; from tissue; host or cells: human post-mortem control brain, whole-hemisphere sections (100 µm)
Procedure: Human brains without pathological findings were acquired from the National Institute of Forensic Medicine at Karolinska Institutet in Stockholm, Sweden. These brains were obtained during forensic autopsies (designated as control brain) and were processed in a manner like previously described methods. […] The brain was removed, and its tissues were kept in −85 °C until the sectioning process. The whole brain hemispheric slices were subsequently maintained at −25 °C until the commencement of autoradiography procedures. […] The sectioning of the brain and the autoradiography experiments were performed at the Psychiatry section, Department of Neuroscience, Karolinska Institutet, Sweden.
Whole brain hemispheres were sectioned into horizontal slices with a thickness of 100 µm using a Leica cryomacrocut system. The autoradiographic procedures followed the same protocols established in previous studies conducted in our laboratory. The whole-hemisphere sections of 100 micron thickness were incubated for 90 min at room temperature with their corresponding radiotracer (4 MBq/200 mL) in TRIS buffer (pH 7.4) containing sodium chloride (120 mM), potassium chloride (5 mM), calcium chloride (2 mM), and albumin (0.1% w/v). After incubation, sections were washed three times in the same buffer at room temperature for five minutes each, briefly dipped in ice-cold distilled water, dried, and then placed in the phosphor imaging plates. Binding density standards were prepared by serial dilution of the radioligand stock solution in the assay buffer. Readings were taken with the Fujifilm BAS-5000 (Fujifilm, Tokyo, Japan), while quantitative analysis was conducted with the Multi Gauge 3.2 image analysis software (Fujifilm, Tokyo, Japan). For blocking experiments, adjacent brain sections were co-incubated with LuAF66583 (0.1 µM or 10 µM).

[4] = Free fraction in brain homogenate (fb); type: in vitro ADME; settings: method ref. 18
From the text: (§1) Table 1 LRRK2 wild-type (WT) and G2019S Lanthascreen, MDR1-MDCK permeability (Papp A:B), and efflux ratio (B:A/A:B), free fractions in plasma (fp) and brain homogenate (fb) and PET Multi-Parameter Optimization (MPO) score of Compounds 1, 2, and 3. | column: fb ^3 (%)

[5] = system: MDR1 (P-gp); assay: MDR1-MDCK permeability and efflux ratio; type: in vitro ADME; settings: dog, assay described in ref. 17; for Papp A→B: MDCK-MDR1; for efflux ratio: MDR1-MDCK, read-out: B:A/A:B (efflux ratio)
From the text: as §1, with “Papp A:B ^2 (MDR1-MDCK) (cm/s × 10^−6); B:A/A:B ^2” for “fb ^3 (%)”

[6] = molecular target: LRRK2 G2019S (Homo sapiens, UniProt Q5S007, G2019S); assay: LRRK2 G2019S Lanthascreen; type: biochemical
[7] = Free fraction in plasma (fp); type: in vitro ADME; settings: method ref. 18
From the text: Table 1 LRRK2 wild-type (WT) and G2019S Lanthascreen, MDR1-MDCK permeability (Papp A:B), and efflux ratio (B:A/A:B), free fractions in plasma (fp) and brain homogenate (fb) and PET Multi-Parameter Optimization (MPO) score of Compounds 1, 2, and 3. | column: fp ^3 (%)

LRRK2 wild-type (WT), sequence (Q5S007 whole entry): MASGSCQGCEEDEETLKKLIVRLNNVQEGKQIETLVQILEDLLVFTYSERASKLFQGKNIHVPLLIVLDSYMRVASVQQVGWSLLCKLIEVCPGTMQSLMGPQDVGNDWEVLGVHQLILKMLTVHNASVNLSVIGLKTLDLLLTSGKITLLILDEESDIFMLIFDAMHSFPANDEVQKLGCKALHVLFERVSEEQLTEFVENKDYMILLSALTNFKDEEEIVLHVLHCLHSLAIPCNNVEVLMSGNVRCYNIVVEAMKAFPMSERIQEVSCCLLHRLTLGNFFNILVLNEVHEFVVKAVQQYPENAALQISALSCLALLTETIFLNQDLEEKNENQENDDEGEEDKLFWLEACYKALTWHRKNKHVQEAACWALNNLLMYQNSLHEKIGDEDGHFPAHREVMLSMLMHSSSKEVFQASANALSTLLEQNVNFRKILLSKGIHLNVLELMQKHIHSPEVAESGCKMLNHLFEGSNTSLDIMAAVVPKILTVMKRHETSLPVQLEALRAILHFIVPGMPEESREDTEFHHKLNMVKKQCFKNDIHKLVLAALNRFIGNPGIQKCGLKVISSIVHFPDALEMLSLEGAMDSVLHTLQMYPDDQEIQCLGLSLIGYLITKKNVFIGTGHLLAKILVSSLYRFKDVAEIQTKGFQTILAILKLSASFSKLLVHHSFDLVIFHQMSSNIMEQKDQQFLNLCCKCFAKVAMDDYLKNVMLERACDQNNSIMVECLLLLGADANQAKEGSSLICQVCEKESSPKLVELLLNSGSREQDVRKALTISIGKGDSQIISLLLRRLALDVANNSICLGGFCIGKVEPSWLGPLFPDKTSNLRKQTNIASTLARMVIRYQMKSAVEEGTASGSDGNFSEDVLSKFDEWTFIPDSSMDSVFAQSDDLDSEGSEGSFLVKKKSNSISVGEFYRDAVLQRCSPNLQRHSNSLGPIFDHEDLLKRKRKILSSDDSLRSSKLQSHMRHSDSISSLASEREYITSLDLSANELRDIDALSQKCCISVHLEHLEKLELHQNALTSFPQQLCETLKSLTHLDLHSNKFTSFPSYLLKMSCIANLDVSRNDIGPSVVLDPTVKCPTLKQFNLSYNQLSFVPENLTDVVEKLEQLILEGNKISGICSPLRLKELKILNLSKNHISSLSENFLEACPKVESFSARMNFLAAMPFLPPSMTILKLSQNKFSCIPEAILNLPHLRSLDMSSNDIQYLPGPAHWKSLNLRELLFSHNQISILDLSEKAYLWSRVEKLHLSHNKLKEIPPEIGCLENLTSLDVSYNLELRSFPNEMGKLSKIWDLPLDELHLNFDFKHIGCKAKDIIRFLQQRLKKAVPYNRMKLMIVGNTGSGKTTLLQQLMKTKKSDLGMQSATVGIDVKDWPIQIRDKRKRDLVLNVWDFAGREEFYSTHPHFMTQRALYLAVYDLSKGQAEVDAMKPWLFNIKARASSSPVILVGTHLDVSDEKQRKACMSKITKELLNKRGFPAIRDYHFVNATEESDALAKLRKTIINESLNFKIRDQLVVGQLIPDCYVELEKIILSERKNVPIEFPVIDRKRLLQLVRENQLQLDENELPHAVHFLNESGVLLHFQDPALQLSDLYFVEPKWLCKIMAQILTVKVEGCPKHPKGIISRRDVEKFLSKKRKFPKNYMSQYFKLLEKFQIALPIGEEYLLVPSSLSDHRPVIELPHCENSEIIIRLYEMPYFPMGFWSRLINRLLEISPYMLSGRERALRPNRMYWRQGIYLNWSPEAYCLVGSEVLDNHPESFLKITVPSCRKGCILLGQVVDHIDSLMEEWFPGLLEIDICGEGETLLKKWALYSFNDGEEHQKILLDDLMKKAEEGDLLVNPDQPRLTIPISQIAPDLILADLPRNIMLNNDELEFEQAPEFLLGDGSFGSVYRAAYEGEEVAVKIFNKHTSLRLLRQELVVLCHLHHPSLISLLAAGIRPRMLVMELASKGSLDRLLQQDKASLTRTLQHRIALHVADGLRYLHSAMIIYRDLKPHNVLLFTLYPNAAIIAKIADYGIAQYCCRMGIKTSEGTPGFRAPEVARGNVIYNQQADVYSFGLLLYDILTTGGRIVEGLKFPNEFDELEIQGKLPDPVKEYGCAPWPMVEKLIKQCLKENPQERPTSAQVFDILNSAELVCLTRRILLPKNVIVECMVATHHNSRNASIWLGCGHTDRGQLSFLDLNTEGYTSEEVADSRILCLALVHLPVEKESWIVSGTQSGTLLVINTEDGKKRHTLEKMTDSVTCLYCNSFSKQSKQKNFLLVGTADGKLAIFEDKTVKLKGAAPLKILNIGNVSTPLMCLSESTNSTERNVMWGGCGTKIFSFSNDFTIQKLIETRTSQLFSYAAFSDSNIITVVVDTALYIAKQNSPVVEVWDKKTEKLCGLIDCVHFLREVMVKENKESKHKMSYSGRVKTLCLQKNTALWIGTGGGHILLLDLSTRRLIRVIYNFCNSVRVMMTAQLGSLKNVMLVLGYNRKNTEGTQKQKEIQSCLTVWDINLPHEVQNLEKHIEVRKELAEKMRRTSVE
T1 sequence (Q5S007 whole entry): as above
LRRK2 G2019S, sequence (Q5S007 whole entry G2019S): as the sequence (Q5S007 whole entry) above, with G2019S counted along it

Row | SMILES | Ki ([1]; assay described in ref. 16, read-out: LRRK2 Lanthascreen WT cKi) [nM] | Blocking of [^18F]1 binding (ARG) [2] | Blocking of [^18F]1 binding (ARG) [3] | fraction unbound [4] | Papp A→B [5] [×10⁻⁶ cm/s] | efflux ratio [5] | Ki ([6]; assay described in ref. 16, read-out: LRRK2 Lanthascreen G2019S cKi) [nM] | fraction unbound [7] | Ki [1] [nM] | Ki [6] [nM]
1 | C[C@@H]1C[C@@H](F)CN1c1c(C#N)c2c(N)nccc2n1C [Compound 1, 4-Amino-2-((2R,4R)-4-fluoro-2-methylpyrrolidin-1-yl)-1-methyl-1H-pyrrolo[3,2-c]pyridine-3-carbonitrile] | 0.7 | effectively blocked | effectively blocked | 0.13 | 31 | 0.66 | 1 | 0.38 |  | 
2 | C[C@@H]1CCCN1c1c(C#N)c2c(N)nc(Nc3cnn(C)c3)nc2n1C [Compound 3, (R)-4-amino-7-methyl-2-((1-methyl-1H-pyrazol-4-yl)amino)-6-(2-methylpyrrolidin-1-yl)-7H-pyrrolo[2,3-d]pyrimidine-5-carbonitrile] |  | effectively blocked | effectively blocked | 0.012 | 17 | 0.8 |  | 0.04 | 0.14 | 0.28

Source: paper PMC12735872, “Development of ^18F/^11C-Labeled Pyrrolo-Pyridine/Pyrimidine LRRK2 Selective PET Radioligands” (Pharmaceuticals, 2025)
